Values after ≈ are worked out from the molar mass of the structure shown.
Tests used:
Escherichia coli = experiment: Antimicrobial activity against Escherichia coli ATCC25922 measured after 24 hrs by CLSI protocol based microdilution method; format: functional
Acinetobacter baumannii = experiment: Antimicrobial activity against Acinetobacter baumannii ATCC19606 measured after 24 hrs by CLSI protocol based microdilution method; format: functional
Pseudomonas aeruginosa = experiment: Antimicrobial activity against Pseudomonas aeruginosa PAO1 measured after 24 hrs by CLSI protocol based microdilution method; format: functional
[1] = Inhibition of N-terminal his 6 tagged Acinetobacter baumannii Fabi (1 to 804 residues) expressed in Escherichia coli BL21 incubated for 30 mins in presence of NADH by fluorescence based microplate reader analysis
Enterococcus faecium = experiment: Antimicrobial activity against Enterococcus faecium ATCC19434 measured after 24 hrs by CLSI protocol based microdilution method; format: functional
Staphylococcus aureus [2] = experiment: Antimicrobial activity against methicillin-susceptible Staphylococcus aureus ATCC25923 measured after 24 hrs by CLSI protocol based microdilution method; format: functional
[3] = target: T1, Enoyl-[acyl-carrier-protein] reductase [NADPH] FabI (Staphylococcus aureus) (UniProt Q6GI75); experiment: Inhibition of N-terminal his 6 tagged Staphylococcus aureus Fabi (1 to […] residues) expressed in Escherichia coli BL21 at 10 uM incubated for 30 mins in presence of NADPH by fluorescence based microplate reader analysis relative to control
T1 sequence (whole entry): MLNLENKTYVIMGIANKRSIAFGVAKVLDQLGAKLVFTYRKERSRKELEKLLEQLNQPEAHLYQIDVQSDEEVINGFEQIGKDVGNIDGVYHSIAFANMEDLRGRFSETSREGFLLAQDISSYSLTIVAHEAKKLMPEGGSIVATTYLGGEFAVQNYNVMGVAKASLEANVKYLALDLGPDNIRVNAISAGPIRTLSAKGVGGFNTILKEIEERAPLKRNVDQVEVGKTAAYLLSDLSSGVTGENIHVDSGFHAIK

[4] = target: T2, Enoyl-[acyl-carrier-protein] reductase [NADPH] FabI (Staphylococcus aureus, UniProt Q6GI75); experiment: Inhibition of N-terminal his 6 tagged Staphylococcus aureus Fabi (1 to […] residues) expressed in Escherichia coli BL21 incubated for 30 mins in presence of NADPH by fluorescence based microplate reader analysis
T2 sequence (Q6GI75 whole entry): T1 sequence (whole entry)

Staphylococcus aureus [5] = experiment: Antimicrobial activity against […] Staphylococcus aureus USA300 measured after 24 hrs by CLSI protocol based microdilution method; format: functional
Enterococcus faecalis = experiment: Antimicrobial activity against Enterococcus faecalis ATCC29212 measured after 24 hrs by CLSI protocol based microdilution method; format: functional
Staphylococcus aureus [6] = experiment: Antimicrobial activity against methicillin-susceptible Staphylococcus aureus ATCC29213 measured after 24 hrs by CLSI protocol based microdilution method; format: functional
Staphylococcus aureus [7] = experiment: Antimicrobial activity against […] Staphylococcus aureus ATCC43300 measured after 24 hrs by CLSI protocol based microdilution method; format: functional
Staphylococcus aureus [8] = experiment: Antimicrobial activity against […] Staphylococcus aureus ATCC33591 measured after 24 hrs by CLSI protocol based microdilution method; format: functional
Staphylococcus aureus [9] = experiment: Antimicrobial activity against […] Staphylococcus aureus NRS271 measured after 24 hrs by CLSI protocol based microdilution method; format: functional
Candida albicans = experiment: Antimicrobial activity against Candida albicans SC5314 measured after 48 hrs by CLSI protocol based microdilution method; format: functional
[10] = target: T1, Enoyl-[acyl-carrier-protein] reductase [NADPH] FabI (Staphylococcus aureus); experiment: Inhibition of N-terminal his 6 tagged Staphylococcus aureus Fabi (1 to […] residues) expressed in Escherichia coli BL21 at 1 uM incubated for 30 mins in presence of NADPH by fluorescence based microplate reader analysis relative to control
[11] = Inhibition of N-terminal his 6 tagged Escherichia coli Fabi (1 to 789 residues) expressed in Escherichia coli BL21 incubated for 30 mins in presence of NADH by fluorescence based microplate reader analysis

| SMILES | MIC (Escherichia coli) | MIC (Acinetobacter baumannii) | MIC (Pseudomonas aeruginosa) | IC50 [1] | MIC (Enterococcus faecium) | MIC (Staphylococcus aureus [2]) | inhibition [3] | IC50 [4] | MIC (Staphylococcus aureus [5]) | MIC (Enterococcus faecalis) | MIC (Staphylococcus aureus [6]) | MIC (Staphylococcus aureus [7]) | MIC (Staphylococcus aureus [8]) | MIC (Staphylococcus aureus [9]) | MIC (Candida albicans) | inhibition [10] | IC50 [11] |
| --- | --- | --- | --- | --- | --- | --- | --- | --- | --- | --- | --- | --- | --- | --- | --- | --- | --- |
| Cn1c(C2CC(=O)N(c3cccc(Br)c3F)C2)nc2ccccc21 (configuration not stated) | > 32 µg/mL | > 32 µg/mL | > 32 µg/mL | 266 nM | > 32 µg/mL | 2 µg/mL (≈ 5.15 µM) | 95.3% | 482 nM | 4 µg/mL (≈ 10.3 µM) | > 32 µg/mL | 2 µg/mL (≈ 5.15 µM) | 4 µg/mL (≈ 10.3 µM) | 4 µg/mL (≈ 10.3 µM) | 8 µg/mL (≈ 20.6 µM) | > 32 µg/mL | 71.2% | 35.9 nM |
| Cn1c(C2CC(=O)N(c3cccc(Cl)c3)C2)nc2ccccc21 (configuration not stated) | > 32 µg/mL | > 32 µg/mL | > 32 µg/mL |  | > 32 µg/mL | > 32 µg/mL | 69.6% | 3530 nM | 32 µg/mL (≈ 98.2 µM) | > 32 µg/mL | 32 µg/mL (≈ 98.2 µM) | > 32 µg/mL | 32 µg/mL (≈ 98.2 µM) | 32 µg/mL (≈ 98.2 µM) | > 32 µg/mL | 12.8% |  |
| COc1ccc(N2CC(c3nc4ccccc4n3C)CC2=O)cc1Br (configuration not stated) | > 32 µg/mL | > 32 µg/mL | > 32 µg/mL |  | > 32 µg/mL | > 32 µg/mL | 72.3% | 3020 nM | > 32 µg/mL | > 32 µg/mL | > 32 µg/mL | > 32 µg/mL | > 32 µg/mL | > 32 µg/mL | > 32 µg/mL | 9.4% |  |
| Cc1c(N2CC(c3nc4ccccc4n3C)CC2=O)cccc1[N+](=O)[O-] (configuration not stated) | > 32 µg/mL | > 32 µg/mL | > 32 µg/mL |  | > 32 µg/mL | 16 µg/mL (≈ 45.7 µM) | 98% | 1520 nM | 16 µg/mL (≈ 45.7 µM) | > 32 µg/mL | 8 µg/mL (≈ 22.8 µM) | 16 µg/mL (≈ 45.7 µM) | 16 µg/mL (≈ 45.7 µM) | 32 µg/mL (≈ 91.3 µM) | > 32 µg/mL | 42.8% |  |
| COc1cccc(N2CC(c3nc4ccccc4n3C)CC2=O)c1C (configuration not stated) | > 32 µg/mL | > 32 µg/mL | > 32 µg/mL |  | > 32 µg/mL | 32 µg/mL (≈ 95.4 µM) | 88.2% | 2270 nM | 16 µg/mL (≈ 47.7 µM) | > 32 µg/mL | 16 µg/mL (≈ 47.7 µM) | 32 µg/mL (≈ 95.4 µM) | > 32 µg/mL | 16 µg/mL (≈ 47.7 µM) | > 32 µg/mL | 27.9% |  |
| Cn1c(C2CC(=O)N(c3cccc(Cl)c3Br)C2)nc2ccccc21 (configuration not stated) | > 32 µg/mL | > 32 µg/mL | > 32 µg/mL |  | > 32 µg/mL | 16 µg/mL (≈ 39.5 µM) | 95.8% | 230 nM | 6 µg/mL (≈ 14.8 µM) | > 32 µg/mL | 8 µg/mL (≈ 19.8 µM) | 16 µg/mL (≈ 39.5 µM) | 8 µg/mL (≈ 19.8 µM) | 16 µg/mL (≈ 39.5 µM) | > 32 µg/mL | 46% |  |
| Cc1cccc(N2CC(c3nc4ccccc4n3C)CC2=O)c1Br (configuration not stated) | > 32 µg/mL | > 32 µg/mL | > 32 µg/mL |  | > 32 µg/mL | 8 µg/mL (≈ 20.8 µM) | 92.6% | 1690 nM | 16 µg/mL (≈ 41.6 µM) | > 32 µg/mL | 16 µg/mL (≈ 41.6 µM) | 32 µg/mL (≈ 83.3 µM) | 16 µg/mL (≈ 41.6 µM) | 32 µg/mL (≈ 83.3 µM) | > 32 µg/mL | 30.1% |  |
| Cc1c(N2CC(c3nc4ccccc4n3C)CC2=O)cccc1C(F)(F)F (configuration not stated) | > 32 µg/mL | > 32 µg/mL | > 32 µg/mL |  | > 32 µg/mL | 8 µg/mL (≈ 21.4 µM) | 93.9% | 632 nM | 8 µg/mL (≈ 21.4 µM) | > 32 µg/mL | 4 µg/mL (≈ 10.7 µM) | 4 µg/mL (≈ 10.7 µM) | 4 µg/mL (≈ 10.7 µM) | 8 µg/mL (≈ 21.4 µM) | > 32 µg/mL | 66.1% |  |
| Cn1c(C2CC(=O)N(c3cccc(Br)c3O)C2)nc2ccccc21 (configuration not stated) | > 32 µg/mL | > 32 µg/mL | > 32 µg/mL |  | > 32 µg/mL | 32 µg/mL (≈ 82.8 µM) | 94.1% | 1880 nM | 16 µg/mL (≈ 41.4 µM) | > 32 µg/mL | 16 µg/mL (≈ 41.4 µM) | 16 µg/mL (≈ 41.4 µM) | 16 µg/mL (≈ 41.4 µM) | 32 µg/mL (≈ 82.8 µM) | > 32 µg/mL | 28.5% |  |
| Cn1c(C2CC(=O)N(c3cccc(Cl)c3F)C2)nc2ccccc21 (configuration not stated) | > 32 µg/mL | > 32 µg/mL | > 32 µg/mL |  | > 32 µg/mL | 4 µg/mL (≈ 11.6 µM) | 97.9% | 579 nM | 8 µg/mL (≈ 23.3 µM) | > 32 µg/mL | 4 µg/mL (≈ 11.6 µM) | 4 µg/mL (≈ 11.6 µM) | 4 µg/mL (≈ 11.6 µM) | 8 µg/mL (≈ 23.3 µM) | > 32 µg/mL | 65.4% |  |

— ChEMBL document CHEMBL5500393, “Discovery and Optimization of Novel SaFabI Inhibitors as Specific Therapeutic Agents for MRSA Infection” (J Med Chem, 2024)
